Where “and” joins values, the source holds several entries; their conditions need not be identical. Identical values can stand only once.
How the values were obtained:
[1] = Hepatocyte stability; assay type: in vitro ADME; details: hepatocytes; In vitro (human)
[2] = test system: Lysyl oxidase family activity in ear; assay: Target engagement: lysyl oxidase family activity in ear after single 30 mg/kg oral dose (Fig. 2g); assay type: in vivo, rat; parameters: Lysyl oxidase family activity in the ear: unit not given here; details: rats; for Lysyl oxidase family activity in the ear: single 30 mg/kg oral, individual samples, 30 mg/kg
Procedure: Data are presented as mean ± s.d. Two-tailed P value determined by unpaired, nonparametric t-test with a Mann–Whitney U-test correction (comparison to PBS control). h, Lysyl oxidase family activity measured in freshly excised aorta determined by fluorometric activity assay n = 19 (PBS), 5 (4–120 h) biological independent samples. Data presented as mean ± s.d. Two-tailed P value determined by unpaired, nonparametric t-test with a Mann–Whitney U-test correction (comparison to PBS control).
To confirm that PXS-5505 inhibits lysyl oxidase family enzymatic activity in tissues, target engagement experiments were performed following a single oral dose (30 mg kg^−1) in rats. […] Lysyl oxidase family activity was measured in two tissues; aorta (core tissue) and ear (peripheral tissue).

[3] = Preclinical genotoxicity and toxicity studies; assay type: in vivo
[4] = test system: KPC CAF remodeled 3D collagen matrices; assay: Matrix stiffness by unconfined compression testing of organotypic matrices; assay type: cell-based, mouse; details: day 12, PXS-5505 30 µM, normalized to control, individual samples
Procedure: Fig. 3 PXS-5505 inhibition of CAF remodeling in vitro. a, Quantitative PCR with reverse transcription (qRT–PCR) showing in vitro comparison of KPC CAF relative expression of lysyl oxidase family members compared to KPC CCs from the same model (n = 3 biologically independent samples). Comparisons were determined by 2^–∆∆Ct approach. b, Representative images of 3D organotypic matrix contraction assay at days 2, 6 and 12 in the absence (gray) or presence (pink) of PXS-5505 (30 µM). Scale bars, 5 mm. Comparison of measured area of matrices between control and PXS-5505 treatment groups over time (n = 3 technical samples examined over three biologically independent samples). Data are mean ± s.d. c, Concentration of immature divalent DHLNL and mature trivalent Pyr collagen crosslinks determined by LC–MS from control and PXS-5505-treated organotypic matrices at day 12 (n = 3 technical samples examined over two biologically independent samples). Data are mean ± s.d. […] Data are presented as mean ± s.d. […] Comparison of number of CCs invaded per field of view (FOV) as determined by H&E and PanCK staining (nine images taken from three technical samples from each of three biologically independent contracted matrices), normalized to control. Data are mean ± s.d. Scale bars, 100 μm. […] Source data […]

[5] = Rat pharmacokinetics, single dose orally (10 mg/kg) or intravenously (5 mg/kg)

Q: With `Cl.Cl.NC/C=C(\F)CS(=O)(=O)c1cccc2cccnc12.O` [PXS-5505, (Z)-3-fluoro-4-(quinolin-8-ylsulfonyl)but-2-en-1-amine dihydrochloride monohydrate] as the molecule, how does the remaining at 1 h [1] read?
A: 90%

Q: And the “recovery of lysyl oxidase family activity in the ear” value ([2]; single 30 mg kg−1 oral, over 120 h)?
A: approximately 50%

Q: And the “Lysyl oxidase family activity in the ear” value ([2]; 4 h)?
A: 45.365 and 48.796 and 39.3331 and 45.8641 and 44.4191

Q: And the “Lysyl oxidase family activity in the ear” value ([2]; 24 h)?
A: 63.1181 and 58.052 and 51.7601 and 46.8877 and 41.975

Q: What about the “Lysyl oxidase family activity in the ear” value ([2]; 48 h) of the same molecule?
A: 53.5883 and 61.6934 and 50.7554 and 53.1219

Q: And the “Lysyl oxidase family activity in the ear” value ([2]; 120 h)?
A: 62.7632 and 56.3978 and 53.8738 and 91.7643

Q: And the “tolerability in preclinical toxicity studies” value ([3]; 6 months)?
A: well tolerated

Q: What about the “preclinical development including genotoxicity and toxicity studies” value ([3]; in vivo) of the same molecule?
A: successfully passed

Q: And the “matrix stiffness by unconfined compression testing” value [4]?
A: 0.918 and 0.779 and 0.916 and 0.962 and 0.835 and 0.748 and 0.939 and 0.975

Q: What about the Plasma concentration ([5]; 5 mg/kg iv, 0.03 hrs) of the same molecule?
A: 10.145

Q: And the Plasma concentration ([5]; 5 mg/kg iv, 0.17 hrs)?
A: 4.593

Q: What about the Plasma concentration ([5]; 5 mg/kg iv, 0.5 hrs) of the same molecule?
A: 2.135

Q: What about the Plasma concentration ([5]; 5 mg/kg iv, 1 hrs) of the same molecule?
A: 0.7139

Q: And the Plasma concentration ([5]; 5 mg/kg iv, 2 hrs)?
A: 0.1589

Q: And the Plasma concentration ([5]; 5 mg/kg iv, 3 hrs)?
A: 0.055

Q: What about the Plasma concentration ([5]; 5 mg/kg iv, 5 hrs) of the same molecule?
A: 0.008393

Q: What about the Plasma concentration ([5]; 10 mg/kg oral, 0.25 hrs) of the same molecule?
A: 2.305

Q: And the Plasma concentration ([5]; 10 mg/kg oral, 0.5 hrs)?
A: 3.551

Q: What about the Plasma concentration ([5]; 10 mg/kg oral, 1 hrs) of the same molecule?
A: 3.399

Q: What about the Plasma concentration ([5]; 10 mg/kg oral, 2 hrs) of the same molecule?
A: 0.9

Q: What about the Plasma concentration ([5]; 10 mg/kg oral, 3 hrs) of the same molecule?
A: 0.198

Q: What about the Plasma concentration ([5]; 10 mg/kg oral, 5 hrs) of the same molecule?
A: 0.02554

Q: And the Plasma concentration ([5]; 10 mg/kg oral, 8 hrs)?
A: 0.0075

Q: What about the AUC(0-t) ([5]; plasma, po, 10 mg/kg) of the same molecule?
A: 1600 ng·h/mL

Q: And the Cmax ([5]; plasma, po, 10 mg/kg)?
A: 1000 ng/mL

Q: And the Tmax ([5]; plasma, po, 10 mg/kg)?
A: 48 min

Q: What about the bioavailability ([5]; plasma, po, 10 mg/kg, Bioavailability (F)) of the same molecule?
A: 75%

Q: And the half-life ([5]; plasma, po, 10 mg/kg, T1/2, rat)?
A: 42 min

Q: And the bioavailability ([5]; plasma, po, 10 mg/kg, bioavailability, oral administration, for rodents)?
A: > 75%

Q: What about the half-life ([5]; plasma, po, 10 mg/kg, half-life, oral administration) of the same molecule?
A: ~60 min

From paper PMC10518255, “A first-in-class pan-lysyl oxidase inhibitor impairs stromal remodeling and enhances gemcitabine response and survival in pancreatic cancer” (Nature Cancer, 2023)
